The viability is a read-out of living cells in per cent, often relative to untreated cells.

The text below walks through data of PMC12040169 (PLOS Biology, 2025).

A short description of this series: in vitro. The conditions noted are these: human, hela cells, % viability.

As to `OC(CSc1ccccc1)CN1CCC(Nc2nccc(C(F)(F)F)n2)CC1` (centres unmarked) [CBK074648], the viability at 28.5 h, 10 µM came to 94.5%. For `CC(=O)Nc1ccc(-c2ccc(COC3CCN(C(=O)c4ccc(Cl)c(Cl)c4)CC3)cc2)cc1` [CBK149215], the viability at 28.5 h, 10 µM turned out to be 89.3%. On to `CC(Oc1cccc(Br)c1)C(=O)NCCC(=O)O` (centres unmarked) [CBK268024], for which the viability at 28.5 h, 10 µM came out at 90.9%. For `CC(C)(C)C(=O)N[C@H]1C[C@@H](Cc2cc(CN3CCOCC3)on2)C1(C)C` [CBK289247], the viability at 28.5 h, 10 µM turned out to be 96.2%. With `Cc1cnc2[nH]c(C3CCN(C(=O)c4cnn(C)c4C)CC3)cc2c1` [CBK284684], the viability at 28.5 h, 10 µM was 88.8%. Then `OC(CNc1nccnc1-c1ccccc1Cl)COc1ccccc1` (centres unmarked) [CBK037085], with 92%. As to `Cc1ccc(NCC2CCN(Cc3cc(=O)n4ccccc4n3)C2)nc1` (centres unmarked) [CBK306334], the viability at 28.5 h, 10 µM turned out to be 80.7%.

Take `CC(C)[C@H]1NC(=O)[C@@H]2[C@@H](NC(=O)NC3CCCCC3)CCN2C1=O` [CBK289264]: the viability at 28.5 h, 10 µM was determined as 113%. On to `NC(=O)c1c(NC(=O)COc2ccc(Cl)cc2)sc2c1CCC2` [CBK262163], for which the viability at 28.5 h, 10 µM turned out to be 91%.

With `CN1CCN(S(=O)(=O)c2ccc(NC(=O)c3cc(-c4cccnc4)nc4ccc(Cl)cc34)cc2)CC1` [CBK267734], the viability at 28.5 h, 10 µM was found to be 94.2%. `CCC1(CCc2ccccc2)CC(O)=CC(=O)O1` (centres unmarked) [CBK012790]: the viability at 28.5 h, 10 µM was found to be 98.5%. As to `Cc1ccc(N2CCN(CC(O)COc3ccc(C(=O)c4ccc(Cl)cc4)cc3)CC2)c(C)c1` (centres unmarked) [CBK266117], the viability at 28.5 h, 10 µM was 110%. Then `COc1cc(-c2cc(N(C)CCN(C)C)n3nccc3n2)cc(OC)c1OC` [CBK037181], with 110%; and `CCOC(=O)c1c(NC(=O)c2cc3ccccc3o2)sc2c1CCCC2` [CBK262552], with 84%; and `COc1ccc2[nH]c3c(c2c1)CN(C(=O)CCC1CCCO1)CC3` (centres unmarked) [CBK281530], with 99.7%.

Regarding `O=C(O)c1ccc(NC(S)=NC(NC(=O)c2ccco2)C(Cl)(Cl)Cl)cc1` (centres unmarked) [CBK261025], the viability at 28.5 h, 10 µM worked out at 96.2%. On to `CSc1ncc(Cl)c(C(=O)Nc2ccc(S(=O)(=O)N3CCC(Cc4ccccc4)CC3)cc2)n1` [CBK268870], for which the viability at 28.5 h, 10 µM was determined as 96.3%.

With `CCCc1nc(NC(CCO)c2ccc(C)cc2)c2cnn(C)c2n1` (centres unmarked) [CBK307309], the viability at 28.5 h, 10 µM worked out at 85.3%.

Consider `O=C(O)CCSc1nnc2[nH]c3ccccc3n12` [CBK265736], for which the viability at 28.5 h, 10 µM turned out to be 108%. In the case of `CC(C)(C)OC(=O)N1CCN(c2nccnc2OCCO)CC1` [CBK001869], the viability at 28.5 h, 10 µM stood at 119%. For the compound `Cc1c(C(=O)NC(Cc2cccs2)c2nccs2)cnn1C` (centres unmarked) [CBK285053], the viability at 28.5 h, 10 µM was found to be 97.1%. In the case of `CCOC(=O)C1CCCCN1Cc1ccc(O)c(OC)c1` (centres unmarked) [CBK261541], the viability at 28.5 h, 10 µM worked out at 96.9%. For `CS(=O)(=O)N1CCN(CC(O)Cn2c3ccc(Cl)cc3c3cc(Cl)ccc32)CC1` (centres unmarked) [CBK264381], the viability at 28.5 h, 10 µM came out at 94%. Then `CCN(CC)CCOC1CCc2ccccc2CC1` [CBK016730C], with 96.7%; and `NC1=Nc2nc3ccccc3n2C(c2ccc3c(c2)OCO3)N1` (centres unmarked) [CBK269906], with 85.7%. For the compound `Nc1ncnc2c1nnn2[C@@H]1O[C@H](CO)[C@H](O)C1O` (some centres unmarked) [CBK201228], the viability at 28.5 h, 10 µM stood at 30%. With `COc1ccccc1C(=O)Nc1ccc(Cl)c(C(=O)O)c1` [CBK287034], the viability at 28.5 h, 10 µM was 82.1%.

`Cc1ccc2c(c1)cc(C)c1nn(CC(=O)NC(C)C)c(=O)n12` [CBK283874]: the viability at 28.5 h, 10 µM was found to be 83.5%. Regarding `CC(=O)NCCn1cc2c(n1)[C@H]1CN(C(=O)C(C)C)C[C@H]1CC2` [CBK284571], the viability at 28.5 h, 10 µM is 93.3%. In the case of `S=c1nc(-c2ccco2)n(Cc2ccccc2)c(=S)n1/C(=N/Cc1ccccc1)c1ccco1` [CBK223550], the viability at 28.5 h, 10 µM came to 108%. In the case of `O=S(=O)(Nc1nc2ccccc2nc1Nc1ccccc1)c1ccccc1` [CBK260953], the viability at 28.5 h, 10 µM amounted to 94.5%.

Turning to `Nc1nc(NCCOc2ccccc2F)cc(C2CCOC2)n1` (centres unmarked) [CBK306559], the viability at 28.5 h, 10 µM worked out at 78.2%. Then `CC1CCCN(c2ccc(NS(=O)(=O)c3ccc4[nH]c(=O)[nH]c(=O)c4c3)cc2)C1` (centres unmarked) [CBK286376], with 97.5%; and `Nn1c(SCC(=O)Nc2ccc3c(c2)oc2ccccc23)nnc1-c1ccc(Cl)cc1Cl` [CBK265090], with 91.7%; and `COc1cccc(CCNC(=O)NC(=O)C2CCN(S(C)(=O)=O)CC2)c1` [CBK034860], with 99%. As to `COc1cccc2sc(Nc3nc(-c4cccs4)cs3)nc12` [CBK287469], the viability at 28.5 h, 10 µM was 82.8%. In the case of `Cc1cc(C)n(C(C)CNC(=O)C(C)Cn2cccn2)n1` (centres unmarked) [CBK281639] it was 87.6%; in that of `COc1cc([N+](=O)[O-])ccc1NC(=S)NCc1ccc(S(N)(=O)=O)cc1` [CBK267067], 100%. In the case of `CCOc1ccc(-c2cncc(NCCc3c[nH]c4ccccc34)n2)cc1` [CBK065876] it was 93%; in that of `Cc1sc2nc(SCC(=O)c3c[nH]c4ccccc34)nc(O)c2c1C` [CBK264068], 80.9%.

In the case of `CCCNC(=O)c1ccc(C)c(NC(=O)N[C@@H]2C[C@@H](CO)N(C)C2)c1` [CBK307451], the viability at 28.5 h, 10 µM is 92.9%. Regarding `CCOCCCNC(=O)c1cnn2c(C)c(CC)c(C)nc12` [CBK162129], the viability at 28.5 h, 10 µM is 93.7%.

Take `COC(=O)c1c(NC(=O)c2cc(C)on2)sc(C(=O)Nc2ccc(Cl)cc2)c1C` [CBK268116]: the viability at 28.5 h, 10 µM was found to be 89.7%. In the case of `O=C(O)C1CC=CCC1C(=O)Nc1ccc(S(=O)(=O)N2CCCc3ccccc32)cc1` (centres unmarked) [CBK268179] it was 94.8%. Regarding `O=C(O)c1nccnc1C(=O)N1CCC(O)(c2ccc(Cl)cc2)CC1` [CBK286621], the viability at 28.5 h, 10 µM is 87.6%. Take `CS(=O)(=O)c1ccc(CNC(=O)c2cc(-c3ccc(C(=O)N4CCOCC4)cc3)cnc2N)cc1` [CBK158599]: the viability at 28.5 h, 10 µM came to 93%. For the compound `CC(=O)NS(=O)(=O)c1ccc(Nc2ccc([N+](=O)[O-])c3nonc23)cc1` [CBK261443], the viability at 28.5 h, 10 µM amounted to 89.7%. Then `O=C(N[C@H]1CCN2C(=O)[C@@H](Cc3c[nH]c4ccccc34)NC(=O)[C@H]12)c1cnccn1` [CBK289232], with 89.3%; and `CNC(=O)C1CCCN1C(=O)c1nnn(Cc2ccc(F)cc2F)c1C` (centres unmarked) [CBK306496], with 93.2%; and `O=C(O)c1ccccc1CSc1ccccn1` [CBK270213], with 98%. Then `CCCc1cc(O)nc(SCCCCn2ccnc2C)n1` [CBK306359], with 107%; and `Cc1ccc2nc(NC(=O)C(C)(C)C)nc(O)c2c1` [CBK021975], with 97.7%. For the compound `COc1ccc(N2CCN(Cc3nc4c(c(=O)n(C)c(=O)n4C)n3C(C)C(C)=O)CC2)cc1` (centres unmarked) [CBK269453], the viability at 28.5 h, 10 µM came to 88.7%. In the case of `CC(=O)Nc1c[nH]nc1C1CCCN(c2cccc(F)c2C#N)C1` (centres unmarked) [CBK306401], the viability at 28.5 h, 10 µM turned out to be 97.2%.

In the case of `COCCN1CCn2c(nc3cc(NC(=O)c4ccccc4)ccc32)C1` [CBK307410], the viability at 28.5 h, 10 µM is 89.4%.

As for `Cc1cc(C)c(S(=O)(=O)NC(C)C)c(C)c1-n1cnnn1` [CBK270197], the viability at 28.5 h, 10 µM was 96.5%.
